Values joined by “and” are separate entries in the source; they are usually repeats but may differ in a detail not shown here. Equal entries are not always repeated. Inconclusive results and toxic doses are left out. Peptide text beside a SMILES is read from it. * marks the point of attachment. Cbz = O=C(OCc1ccccc1)*; OtBu = CC(C)(C)O*

This experiment has as its system P388 leukemia ip, CD2F1 mice, survival T/C. In words: NCI In Vivo Anticancer Drug Screen. Data for tumor model P388 Leukemia (intraperitoneal) in CD2F1 (CDF1) mice. Particulars: endpoint: median survival time, higher = longer survival. Put shortly: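 Mice carrying the transplanted tumor received test compound or vehicle. Survival was recorded in each group, and the value is the treated-group measurement divided by that of the vehicle-treated control group.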

Where [1] appears, read: dose: 60.0 mg/kg/injection, schedule: Q01DX005 (ip), vehicle: Klucel (hydroxypropylcellulose) (HPC).
The mark [2] stands for this setting: dose: 120.0 mg/kg/injection, schedule: Q01DX005 (ip), vehicle: Klucel (hydroxypropylcellulose) (HPC).
The mark [3] stands for this setting: dose: 240.0 mg/kg/injection, schedule: Q01DX005 (ip), vehicle: Klucel (hydroxypropylcellulose) (HPC).
[4] abbreviates: dose: 60.0 mg/kg/injection, schedule: Q01DX005 (ip), vehicle: saline with Tween-80.
The mark [5] stands for this setting: dose: 120.0 mg/kg/injection, schedule: Q01DX005 (ip), vehicle: saline with Tween-80.
Where [6] appears, read: dose: 240.0 mg/kg/injection, schedule: Q01DX005 (ip), vehicle: saline with Tween-80.
Setting [7] is: dose: 50.0 mg/kg/injection, schedule: Q01DX009 (ip), vehicle: Klucel (hydroxypropylcellulose) (HPC).
Where [8] appears, read: dose: 100.0 mg/kg/injection, schedule: Q01DX009 (ip), vehicle: Klucel (hydroxypropylcellulose) (HPC).
[9] abbreviates: dose: 200.0 mg/kg/injection, schedule: Q01DX009 (ip), vehicle: Klucel (hydroxypropylcellulose) (HPC).
Where [10] appears, read: dose: 100.0 mg/kg/injection, schedule: Q04DX003 (ip), vehicle: saline with Tween-80.
[11] abbreviates: dose: 200.0 mg/kg/injection, schedule: Q04DX003 (ip), vehicle: saline with Tween-80.
Setting [12] is: dose: 400.0 mg/kg/injection, schedule: Q04DX003 (ip), vehicle: saline with Tween-80.
Where [13] appears, read: dose: 50.0 mg/kg/injection, schedule: Q01DX005 (ip), vehicle: saline with Tween-80.
Where [14] appears, read: dose: 100.0 mg/kg/injection, schedule: Q01DX005 (ip), vehicle: saline with Tween-80.
Where [15] appears, read: dose: 200.0 mg/kg/injection, schedule: Q01DX005 (ip), vehicle: saline with Tween-80.
Setting [16] is: dose: 25.0 mg/kg/injection, schedule: Q01DX005 (ip), vehicle: saline with Tween-80.
Where [17] appears, read: dose: 25.0 mg/kg/injection, schedule: Q01DX005 (ip), vehicle: Klucel (hydroxypropylcellulose) (HPC).
The mark [18] stands for this setting: dose: 50.0 mg/kg/injection, schedule: Q01DX005 (ip), vehicle: Klucel (hydroxypropylcellulose) (HPC).
Setting [19] is: dose: 100.0 mg/kg/injection, schedule: Q04DX003 (ip), vehicle: saline.
Setting [20] is: dose: 200.0 mg/kg/injection, schedule: Q04DX003 (ip), vehicle: saline.
The mark [21] stands for this setting: dose: 100.0 mg/kg/injection, schedule: Q01DX005 (ip), vehicle: Klucel (hydroxypropylcellulose) (HPC).

As for `CCOSN1CCOCC1`, the T/C is, setting by setting: (dose: 25.0 mg/kg/injection, schedule: Q04DX002 (ip), vehicle: saline) 101 % of control; (dose: 50.0 mg/kg/injection, schedule: Q04DX002 (ip), vehicle: saline) 101 % of control; (dose: 100.0 mg/kg/injection, schedule: Q04DX002 (ip), vehicle: saline) 100 % of control and 93 % of control.
For `COc1ccccc1C1OC(=N)C(=S)N1C` (stereo not drawn), the T/C under setting [1] is 107 % of control, the T/C under setting [2] is 111 % of control and the T/C under setting [3] is 113 % of control.
With `N#CC(=NCCO)C1=C(O)c2ccccc2C1=O`, the T/C runs as follows: under setting [4], 107 % of control; under setting [5], 97 % of control; under setting [6], 95 % of control.
For `CCCCCCCC(=O)C(=O)c1ccc(O)cc1O`, the T/C was 109 % of control under setting [7], 112 % of control under setting [8] and 113 % of control under setting [9].
Consider `COC(=O)C(CCC(=O)OC(C)(C)C)NC(=O)C(NC(=O)OCc1ccccc1)C(C)C` (stereo not drawn) (Cbz-Val-Glu(OtBu)-OMe; configuration not given here), for which the T/C is, setting by setting: under setting [10], 110 % of control; under setting [11], 120 % of control; under setting [12], 90 % of control.
Take `CSCC[C@]1(C)C(=O)N(C)[C@H](C(C)(C)C)N1C(=O)c1ccccc1`: the T/C runs as follows: under setting [4], 99 % of control; under setting [5], 100 % of control; under setting [6], 93 % of control.
With `Cc1cc2nc(=O)cc(CCl)n2c(=O)n1C(=O)C(O)C(O)C(O)CO` (stereo not drawn), the T/C is 109 % of control under setting [13], 117 % of control under setting [14] and 113 % of control under setting [15].
Consider `CSc1nc2nc[nH]c(=O)c2[nH]1`, for which the T/C under setting [16] is 95 % of control, the T/C under setting [13] is 99 % of control and the T/C under setting [14] is 94 % of control.
Regarding `COC(=O)C1=COC(OC2OC(COC(C)=O)C(OC(C)=O)C(OC(C)=O)C2OC(C)=O)C2C(C)CC(OC(C)=O)C12` (stereo not drawn), the T/C reads like this: (dose: 12.5 mg/kg/injection, schedule: Q01DX005 (ip), vehicle: Klucel (hydroxypropylcellulose) (HPC)) 105 % of control; under setting [17], 98 % of control; under setting [18], 96 % of control.
As to `Cc1ncc([N+](=O)[O-])n1CCn1nnc2c1CCCC2`, the T/C is 100 % of control and 109 % of control (dose: 25.0 mg/kg/injection, schedule: Q04DX003 (ip), vehicle: saline); 100 % of control and 109 % of control (dose: 50.0 mg/kg/injection, schedule: Q04DX003 (ip), vehicle: saline); 115 % of control and 96 % of control under setting [19]; 99 % of control and 115 % of control under setting [20].
Take `CC(=O)Oc1ccccc1C(=O)OC1CC2CCC1(C)C2(C)C` (stereo not drawn): the T/C was 92 % of control under setting [13], 97 % of control under setting [14] and 98 % of control under setting [15].
For the compound `C(=N\N1CCCCCC1)/c1ccc2c(c1)OCO2`, the T/C (dose: 25.0 mg/kg/injection, schedule: Q01DX009 (ip), vehicle: saline with Tween-80) was 90 % of control; the T/C (dose: 50.0 mg/kg/injection, schedule: Q01DX009 (ip), vehicle: saline with Tween-80) is 95 % of control; the T/C (dose: 100.0 mg/kg/injection, schedule: Q01DX009 (ip), vehicle: saline with Tween-80) was 90 % of control.
Consider `COSc1ccc(C)cc1`, for which the T/C is, setting by setting: under setting [19], 108 % of control; under setting [20], 100 % of control.
As to `C1CN1CN1CC1`, the T/C is, setting by setting: under setting [18], 102 % of control; under setting [21], 99 % of control.
For the compound `COc1ccc(-n2c(C)nc3c(cnn3C)c2=O)cc1`, the T/C reads like this: under setting [17], 101 % of control and 96 % of control; under setting [18], 100 % of control and 101 % of control and 97 % of control; under setting [21], 108 % of control and 115 % of control and 95 % of control; (dose: 200.0 mg/kg/injection, schedule: Q01DX005 (ip), vehicle: Klucel (hydroxypropylcellulose) (HPC)) 99 % of control and 120 % of control and 97 % of control.
`CC(=O)Nc1ccc(NN=O)cn1`: the T/C reads like this: (dose: 3.12 mg/kg/injection, schedule: Q01DX009 (ip), vehicle: water) 113 % of control; (dose: 6.25 mg/kg/injection, schedule: Q01DX009 (ip), vehicle: water) 106 % of control; (dose: 12.5 mg/kg/injection, schedule: Q01DX009 (ip), vehicle: water) 110 % of control and 114 % of control; (dose: 25.0 mg/kg/injection, schedule: Q01DX009 (ip), vehicle: water) 116 % of control.
Regarding `CC1(C)OC(C)(C)C(=N\O)/C1=N/N`, the T/C by setting is: under setting [1], 102 % of control; under setting [2], 102 % of control; under setting [3], 106 % of control.
`CCN1CSC(=S)N(Cc2ccccc2)C1`: the T/C was 99 % of control under setting [7], 101 % of control under setting [8] and 101 % of control under setting [9].
As for `COc1cc(OC(=O)N(CCCl)N=O)cc(OC)c1OC`, the T/C (dose: 12.5 mg/kg/injection, schedule: Q01DX001 (ip), vehicle: Klucel (hydroxypropylcellulose) (HPC)) is 112 % of control; the T/C (dose: 25.0 mg/kg/injection, schedule: Q01DX001 (ip), vehicle: Klucel (hydroxypropylcellulose) (HPC)) was 101 % of control; the T/C (dose: 50.0 mg/kg/injection, schedule: Q01DX001 (ip), vehicle: Klucel (hydroxypropylcellulose) (HPC)) was 103 % of control.
For `O=[N+]([O-])c1cc2[nH]cnc2c([N+](=O)[O-])c1N1CCOCC1`, the T/C runs as follows: (dose: 25.0 mg/kg/injection, schedule: Q04DX003 (ip), vehicle: saline with Tween-80) 100 % of control; (dose: 50.0 mg/kg/injection, schedule: Q04DX003 (ip), vehicle: saline with Tween-80) 104 % of control; under setting [10], 97 % of control.
Take `COc1ccc2c(c1)OC(C)(C)C(c1ccccc1)C2c1ccc(O)c([N+](=O)[O-])c1` (stereo not drawn): the T/C runs as follows: under setting [18], 109 % of control; under setting [21], 101 % of control.
Turning to `CN(C)/C(=N\N=C(/c1ccc(Cl)cc1)N(C)C)c1ccc(Cl)cc1`, the T/C was 97 % of control under setting [10], 105 % of control under setting [11] and 105 % of control under setting [12].
As to `CCC1=C(C)CC(CC(=O)OC)C1=O` (stereo not drawn), the T/C was 95 % of control (dose: 50.0 mg/kg/injection, schedule: Q01DX005 (ip), vehicle: saline); 97 % of control (dose: 100.0 mg/kg/injection, schedule: Q01DX005 (ip), vehicle: saline); 98 % of control (dose: 200.0 mg/kg/injection, schedule: Q01DX005 (ip), vehicle: saline).
Consider `CCC(CC)C[Se][Se]CC(CC)CC`, for which the T/C by setting is: (dose: 6.25 mg/kg/injection, schedule: Q01DX009 (ip), vehicle: Klucel (hydroxypropylcellulose) (HPC)) 100 % of control; (dose: 12.5 mg/kg/injection, schedule: Q01DX009 (ip), vehicle: Klucel (hydroxypropylcellulose) (HPC)) 101 % of control; (dose: 25.0 mg/kg/injection, schedule: Q01DX009 (ip), vehicle: Klucel (hydroxypropylcellulose) (HPC)) 103 % of control.
With `CC(C)CC(=O)CC(C)(O)CCC(=O)c1ccoc1` (stereo not drawn), the T/C was 98 % of control under setting [16], 104 % of control under setting [13] and 102 % of control under setting [14].
With `CC1CC[N-]C(N)N1.CC1CC[N-]C(N)N1.[Cl][Pd][Cl]` (stereo not drawn), the T/C is 97 % of control under setting [1], 97 % of control under setting [2] and 90 % of control under setting [3].
Turning to `O=C(Nc1ccccc1)C1(Cl)CCCCC1`, the T/C runs as follows: (dose: 100.0 mg/kg/injection, schedule: Q01DX001 (ip), vehicle: Klucel (hydroxypropylcellulose) (HPC)) 90 % of control; (dose: 200.0 mg/kg/injection, schedule: Q01DX001 (ip), vehicle: Klucel (hydroxypropylcellulose) (HPC)) 92 % of control; (dose: 400.0 mg/kg/injection, schedule: Q01DX001 (ip), vehicle: Klucel (hydroxypropylcellulose) (HPC)) 91 % of control.
On to `CCC[CH2][Sn]([CH2]CCC)([CH2]CCC)[CH2]CCCNCCCN(C)C`, for which the T/C is 97 % of control (dose: 50.0 mg/kg/injection, schedule: Q01DX009 (ip), vehicle: saline) and 100 % of control (dose: 100.0 mg/kg/injection, schedule: Q01DX009 (ip), vehicle: saline).

The record behind these values is PubChem BioAssay AID330 (DTP/NCI, 2004).
